Measurements from the supplement of paper PMC10307832.

Legend:
Assay in all cases: relative viability (nuclei count vs DMSO), 5 days (fraction); higher = more cells survive
[1] = compound: Oc1nc(-c2ccc(C(F)(F)F)cc2)nc2c1CSCC2 [XAV939]
In short: (§1)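 On vehicle-anchored 1536-well plates, lung cancer cell lines held overnight at 37 °C were pinned with five library-drug doses (not always all listed) spaced by √10. With no medium change over 5 days, they were then fixed, permeabilised and Hoechst-stained in one step and imaged at 4×. MetaXpress counted nuclei, and viability is the median across plates of treated-well over vehicle-well nuclei. Acceptance needed control CV below 25% and at least one doubling.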

[2] = compound: CC1(C)CCC(c2ccc(Cl)cc2)=C(CN2CCN(c3ccc(C(=O)NS(=O)(=O)c4ccc(N[C@H](CCN5CCOCC5)CSc5ccccc5)c(S(=O)(=O)C(F)(F)F)c4)cc3)CC2)C1 [Navitoclax]
In short: as §1

[3] = compound: CCCCCCCC[C@H]1[C@@H](C(=C)C(=O)O1)C(=O)O [C-75]
In short: as §1

[4] = compound: O=C(O)c1ccc(-c2c[nH]c3ncc(-c4ccccc4)cc23)cc1C1CCCC1
In short: as §1

[5] = compound: NC(=O)Nc1cc(-c2cccc(F)c2)sc1C(=O)N[C@H]1CCCNC1 [AZD7762]
In short: as §1

Cell Line | relative viability ([1]; 0.08 µM) | relative viability ([1]; 0.253 µM) | relative viability ([1]; 0.8 µM) | relative viability ([1]; 2.53 µM) | relative viability ([2]; 0.005 µM) | relative viability ([2]; 0.01581 µM) | relative viability ([2]; 0.1581 µM) | relative viability ([2]; 0.5 µM) | relative viability ([2]; 0.5 µM, anchor plate) | relative viability ([3]; 0.08 µM) | relative viability ([3]; 0.253 µM) | relative viability ([3]; 0.8 µM) | relative viability ([3]; 2.53 µM) | relative viability ([3]; 8 µM) | relative viability ([4]; 0.04 µM) | relative viability ([4]; 0.1265 µM) | relative viability ([4]; 0.4 µM) | relative viability ([4]; 1.265 µM) | relative viability ([5]; 0.01 µM) | relative viability ([5]; 0.03162 µM) | relative viability ([5]; 0.1 µM) | relative viability ([5]; 0.2 µM, anchor plate) | relative viability ([5]; 0.3162 µM) | relative viability ([5]; 1 µM) | relative viability ([2]; 0.05 µM)
NCI-H1734 | 1.03 | 0.913 | 0.92 | 0.842 | 1.03 | 1.08 | 0.888 | 1.01 | 0.859 | 1.09 | 0.949 | 0.956 | 0.632 | 0.766 | 0.985 | 1.11 | 0.939 | 0.764 | 0.977 | 1.12 | 1.02 | 0.575 | 0.856 | 0.507 | 
NCI-H1755 | 0.961 | 0.834 | 0.931 | 0.876 | 1.01 | 1.02 | 0.957 | 0.966 | 0.988 | 0.954 | 0.972 | 0.946 | 0.845 | 0.982 | 1.01 | 1.09 | 1.04 | 0.956 | 1.01 | 1.02 | 1.09 | 0.458 | 0.936 | 0.471 | 0.897
NCI-H1792 | 0.955 | 0.874 | 0.871 | 0.74 | 0.956 | 0.936 | 0.693 | 1.06 | 0.664 | 0.904 | 0.956 | 0.845 | 0.76 | 0.863 |  | 1.09 | 0.856 | 0.921 | 0.912 | 1.02 | 1.02 | 0.71 | 1.08 | 1.01 | 0.778
NCI-H1793 | 1.12 | 0.748 | 1.01 | 0.863 | 0.977 | 1.09 | 0.866 | 0.702 | 0.491 | 0.822 | 1.1 | 0.795 | 0.768 | 1.05 | 0.91 | 1.28 | 0.9 | 0.956 | 1.02 | 1.1 | 0.961 | 0.538 | 0.924 | 0.555 | 
NCI-H1915 | 1.03 | 0.973 | 1.01 | 0.96 | 0.968 | 0.963 | 0.923 | 0.886 | 0.789 | 0.987 | 1.05 | 0.959 | 0.862 | 0.823 | 1.02 | 0.974 | 0.955 | 0.857 | 1.01 | 1.01 | 1.05 | 0.72 | 0.99 | 0.89 | 1.05
NCI-H1944 | 1.12 | 0.907 | 0.898 | 0.87 | 0.942 | 1.09 | 0.913 | 0.892 | 1.05 | 0.871 | 0.909 | 0.929 |  | 0.9 | 0.92 | 1.07 | 0.907 | 0.874 | 1 | 1 | 1.1 | 0.566 | 0.967 | 0.605 | 0.766
NCI-H1975 | 0.87 | 0.705 | 0.78 | 0.742 | 0.927 | 1.06 | 0.824 | 0.99 | 1.12 | 0.999 | 0.827 | 0.85 | 0.884 | 0.931 | 0.952 | 1.09 | 0.965 | 0.975 | 0.957 | 0.927 | 0.938 | 0.761 | 0.791 | 0.575 | 1.03
